Assay results: patent publication US20180303776A1, “LIPOSOMAL REHYDRATION SALT FORMULATION FOR TREATMENT OF ALCOHOL RELATED DISORDERS” (EINSOF BIOHEALTH LIMITED, priority 2017, published 2018)

Assays:
4-HNE = assay: Lipid peroxidation (HNE adduct formation) in frontal cortex; type: in vivo, rats; conditions: significant only in the animals treated with ethanol
Procedure: (§1) There now follows examples of treatment of ethanol intoxication and using OEA as Example 10. Rats received an initial dose of 5 g/kg of 30% (w/v) ethanol via oral probe and a maximum of 3 g/kg of ethanol in subsequent doses every 8 hours. Blood was collected from the tail vein 2 hours before and 2 hours after 15:00 hours of ethanol administration by gavage on days 2 to 4 in order to determine blood ethanol levels (BEL), and treated of keeping toxic ethanol doses BEL relatively constant (see the table below). Mean ethanol/rat doses were 8 g/kg, 7.5 g/kg, 7.9 g/kg and 4.9 g/kg, day 1 to 4, respectively, and the mean ethanol/rat/day (1-4) was 7.06 g/kg. […]
(§2) HMGB1 is a dangerous cytokine recruited by alcohol that activates the MyD88-dependent TLR4 immune signaling pathway, inducing the translocation of the p65 subunit of NF-kB to the nucleus and increasing its transcriptional activity. […] Lipid peroxidation, measured by the accumulation of 4-HNE, induces a redox cell state related to activation of caspase 3 and cell death by caspase-mediated apoptosis 8. […]
Lipid peroxidation was studied. […] Levels of HNE protein adducts in cerebral cortex lysates were measured using a competitive 96-well OxySelect™ adduct HNE ELISA Kit (Cell Biolabs®, San Diego, Calif., US).

p65 subunit of NF-kB = assay: NF-κB p65 expression and transcription factor activity in frontal cortex; type: in vivo, rats
Procedure: as §1, §2
Real-time Polymerase Chain Reaction Analysis (RT-PCR) were studied. […] Quantitative changes in mRNA levels were estimated by RT-PCR, carried out in the presence of the SYBR green probe using a […] reaction in a Rotor-Gene (Corbett Research®, Mortlake, NSW, Australia). […]

HMGB1 = HMGB1 expression in frontal cortex after ethanol intoxication; type: in vivo, rats
Procedure: as §1, with “g/kg. In a first experiment, the time-course of the neuro-inflammation was verified after 1 hour, 6 hours and 24 hours from the last feeding forced with ethanol.” for “g/kg.”
as §2
(§3) The western blot analysis was studied. […] Autoradiography was quantified by densitometry (NIH ImageJ® software, National Biosciences, Lincoln, Nebr. USA) and expressed as optical density (O.D.). […]

TNF-α = TNF-α in frontal cortex and plasma after ethanol intoxication; type: in vivo, rats; conditions: OEA pretreatment
Procedure: as §1, with “g/kg. In a first experiment, the time-course of the neuro-inflammation was verified after 1 hour, 6 hours and 24 hours from the last feeding forced with ethanol. In the second experiment, OEA (5 mg/kg, ip, 10 mg/kg loading dose) was injected as pretreatment 10 min before each ethanol forced feed, and brain/blood tissue samples were collected 2-4 hours after the last administration of ethanol.” for “g/kg.”
as §2
(§4) Real-time Polymerase Chain Reaction Analysis (RT-PCR) were studied. […] Quantitative changes in mRNA levels were estimated by RT-PCR, carried out in the presence of the SYBR green probe using a […] reaction in a Rotor-Gene (Corbett Research®, Mortlake, NSW, Australia).
(§5) Levels of HMGB1, pro-inflammatory cytokines (TNF-α, IL-1β) and chemokines MCP-1 were studied. Levels of HMGB1, TNF-α, IL-1β and soluble MCP-1 were determined by Enzyme-linked immunosorbent assay (ELISA) 30 (Elabscience Biotechnology Co., Ltd., China, for HMGB-1; RayBiotech®, GA, USA, for the TNF-α, IL-1β and MCP-1). The nuclear/cytosolic HMGB1 fraction was determined by Western blot analysis.

IL-1β = IL-1β in frontal cortex and plasma after ethanol intoxication; type: in vivo, rats; conditions: OEA pretreatment
Procedure: as §1, with “g/kg. In a first experiment, the time-course of the neuro-inflammation was verified after 1 hour, 6 hours and 24 hours from the last feeding forced with ethanol. In the second experiment, OEA (5 mg/kg, ip, 10 mg/kg loading dose) was injected as pretreatment 10 min before each ethanol forced feed, and brain/blood tissue samples were collected 2-4 hours after the last administration of ethanol.” for “g/kg.”
as §2, §4, §5

iNOS = iNOS mRNA expression in frontal cortex; type: in vivo, rats; conditions: OEA pretreatment
Procedure: as §1, §2, §4

[1] = system: rats exposed to ethanol intoxication; assay: Elevated cross maze test during ethanol abstinence; type: in vivo
Procedure: Tests were conducted to determine the effects of repeated OEA administration on depressive and anxiety behavior during early ethanol abstinence. Animals were tested in the cross-raised labyrinth 24 hours and 12 days after the alcohol abuse protocol and forced swimming test was performed 48 hours after the last administration of ethanol. [HMGB1 (High Mobility Group Box 1): high mobility group 1 box; TLR4 (Toll-Like Receptors 4): Receptors type Toll 4: MD2 (Myeloid Differentiation Protein 2): myeloid differentiation protein 2; MyD88 (Myeloid Differentiation Factor 88): myeloid differentiation factor 88; NF-kB (Nuclear Farctor kB): nuclear transcription factor kappa B (p65 subunit); IkB: inhibitory protein IkappaB; TNF-α (Tumor Necrosis Factor α): tumor necrosis factor alpha; IL-1β (Interleukin β): 1interleukin-1 beta; MCP-1 (Monocyte Chemoattractant Protein 1): monocyte chemotactic protein 1; INOS (inducible Nitric Oxide Synthase): inducible nitric oxide synthase; COX-2 (Cyclooxygenase 2): cyclooxygenase 2; 4-HNE (4-hydroxynonenal): 4-hydroxynonenal]. […] The forced swimming test was performed on the rats two days after the last forced feed with ethanol and the specific behaviors were recorded with a digital video camera for 5 minutes. […]

MCP-1 = MCP-1 levels in frontal cortex after ethanol intoxication; type: in vivo, rats; conditions: OEA pretreatment
Procedure: as §1, §2
as §5, with “The nuclear/cytosolic HMGB1 fraction was determined by Western blot analysis.” left out

MyD88 = MyD88 protein expression in frontal cortex after ethanol intoxication; type: in vivo, rats; conditions: OEA pretreatment
Procedure: as §1, with “g/kg. In a first experiment, the time-course of the neuro-inflammation was verified after 1 hour, 6 hours and 24 hours from the last feeding forced with ethanol.” for “g/kg.”
as §2, §3

LPS = assay: Plasma LPS levels (intestinal permeability to endotoxins); type: in vivo, rats; conditions: pretreated with OEA and receiving ethanol; ethanol alone approximately 80%
Procedure: (§6) There now follows examples of treatment of ethanol intoxication and using OEA as Example 10. Rats received an initial dose of 5 g/kg of 30% (w/v) ethanol via oral probe and a maximum of 3 g/kg of ethanol in subsequent doses every 8 hours. Blood was collected from the tail vein 2 hours before and 2 hours after 15:00 hours of ethanol administration by gavage on days 2 to 4 in order to determine blood ethanol levels (BEL), and treated of keeping toxic ethanol doses BEL relatively constant (see the table below). Mean ethanol/rat doses were 8 g/kg, 7.5 g/kg, 7.9 g/kg and 4.9 g/kg, day 1 to 4, respectively, and the mean ethanol/rat/day (1-4) was 7.06 g/kg. In a first experiment, the time-course of the neuro-inflammation was verified after 1 hour, 6 hours and 24 hours from the last feeding forced with ethanol. In the second experiment, OEA (5 mg/kg, ip, 10 mg/kg loading dose) was injected as pretreatment 10 min before each ethanol forced feed, and brain/blood tissue samples were collected 2-4 hours after the last administration of ethanol.
(§7) Experimental design, drug administration and tissue/plasma collection are now discussed. […]
(§8) Plasma levels of corticosterone and LPS were studied. Corticosterone and LPS were measured in plasma using commercially available kits by radioimmunOEAsay (RIA) (Coat-A-Count®, Siemens, La., USA) or colorimetric enzyme reaction (HyCult Biotech, Uden, respectively).

caspase-3 = assay: Caspase-3 expression and activity in frontal cortex; type: in vivo, rats; conditions: OEA pretreatment
Procedure: as §6, with “of ethanol. […]” for “of ethanol.”
as §2, §3, §4
Measurement of caspase-3 activity was studied. Caspase-3 activity was determined using a fluorometric assay kit (Abnova®, Taiwan) according to the manufacturer's protocol. […]

corticosterone = assay: Plasma corticosterone levels; type: in vivo, rats
Procedure: as §6, §7, §8

IκBα = IκBα mRNA and protein expression in frontal cortex; type: in vivo, rats; conditions: OEA pretreatment
Procedure: as §1, with “g/kg. In a first experiment, the time-course of the neuro-inflammation was verified after 1 hour, 6 hours and 24 hours from the last feeding forced with ethanol.” for “g/kg.”
as §2, §3

MD2 = MD2 protein expression in frontal cortex after ethanol intoxication; type: in vivo, rats; conditions: OEA pretreatment
Procedure: as §1, with “g/kg. In a first experiment, the time-course of the neuro-inflammation was verified after 1 hour, 6 hours and 24 hours from the last feeding forced with ethanol.” for “g/kg.”
as §2, §3

COX-2 = COX-2 mRNA expression in frontal cortex; type: in vivo, rats; conditions: 2-4 hours after last ethanol administration, OEA pretreatment
Procedure: as §1, §2, §4

[2] = system: rats exposed to ethanol intoxication; assay: Forced swimming test during early ethanol abstinence; type: in vivo; conditions: forced swimming test 48 hours after last ethanol administration; OEA pretreatment
Procedure: Tests were conducted to determine the effects of repeated OEA administration on depressive and anxiety behavior during early ethanol abstinence. Animals were tested in the cross-raised labyrinth 24 hours and 12 days after the alcohol abuse protocol and forced swimming test was performed 48 hours after the last administration of ethanol. [HMGB1 (High Mobility Group Box 1): high mobility group 1 box; TLR4 (Toll-Like Receptors 4): Receptors type Toll 4: MD2 (Myeloid Differentiation Protein 2): myeloid differentiation protein 2; MyD88 (Myeloid Differentiation Factor 88): myeloid differentiation factor 88; NF-kB (Nuclear Farctor kB): nuclear transcription factor kappa B (p65 subunit); IkB: inhibitory protein IkappaB; TNF-α (Tumor Necrosis Factor α): tumor necrosis factor alpha; IL-1β (Interleukin β): 1interleukin-1 beta; MCP-1 (Monocyte Chemoattractant Protein 1): monocyte chemotactic protein 1; INOS (inducible Nitric Oxide Synthase): inducible nitric oxide synthase; COX-2 (Cyclooxygenase 2): cyclooxygenase 2; 4-HNE (4-hydroxynonenal): 4-hydroxynonenal]. In this third experiment (n=25), the treatment with ethanol intoxication and OEA pretreatment applied in experiment 2 was repeated, and the animals were submitted to the maze test in a high cross 24 hours and 12 days after the last forced ethanol administration and the forced swimming test 48 hours after the ethanol intoxication protocol. Behavioral tests were studied. The forced swimming test was performed on the rats two days after the last forced feed with ethanol and the specific behaviors were recorded with a digital video camera for 5 minutes. These same rats were also tested by the high cross maze test equipped with infrared light (Panlab, Barcelona, Spain) 1 and 12 days after the last forced feed with ethanol, allowing the animals to freely explore the labyrinth during 5 minutes. Tests were performed 3 hours after onset of the dark phase.

TLR4 = TLR4 mRNA and protein expression in frontal cortex after ethanol intoxication; type: in vivo, rats; conditions: OEA pretreatment
Procedure: as §1, with “g/kg. In a first experiment, the time-course of the neuro-inflammation was verified after 1 hour, 6 hours and 24 hours from the last feeding forced with ethanol.” for “g/kg.”
as §2, §3

caspase-8 = assay: Caspase-8 mRNA expression in frontal cortex; type: in vivo, rats; conditions: OEA pretreatment
Procedure: as §1, §2, §4

## CCCCCCCC/C=C\CCCCCCCC(=O)NCCO [OEA, oleoylethanolamide]
4-HNE
  HNE formation (lipid peroxidation): decreased the HNE formation
p65 subunit of NF-kB; frontal cortex nuclear extracts, OEA pretreatment
  increase in nuclear activity of p65 induced by ethanol: counteracted
p65 subunit of NF-kB; frontal cortex, OEA pre-administration
  increase in p65 mRNA levels induced by ethanol: partially prevented
HMGB1; OEA 5 mg/kg ip 10 min before each ethanol dose
  increase in HMGB1 induced by ethanol intoxication: prevented
HMGB1; OEA pretreatment + ethanol
  nuclear/cytoplasmic HMGB1 ratio: 1.48
TNF-α; frontal cortex
  ethanol-induced increase of TNF-α mRNA expression: did not prevent this effect
  ethanol-induced increase of TNF-α protein levels: not avoided
TNF-α; plasma
  ethanol-induced increase of TNF-α: partially prevented
IL-1β; frontal cortex
  ethanol-induced increase in IL-1β protein levels: prevented
  ethanol-induced increase of IL-1β mRNA expression: did not prevent this effect
IL-1β; plasma
  ethanol-induced increase of IL-1β: prevented
iNOS
  ethanol-induced increase in the expression of iNOS mRNA: completely prevented
[1]; 24 hours after ethanol intoxication
  anxiety-type behavior: percentage of entries and time in the open arms: clear trend showing a clear anxiolytic effect of OEA in the animals treated with ethanol and control, the Dunn post hoc test found no significant effects in multiple comparisons
[1]; 12 days after ethanol intoxication
  anxiety-type behavior: percentage of entrances and time of permanence in the open arms: not significant
MCP-1
  ethanol-induced increase of MCP-1 levels: prevented this effect
MyD88
  increase in ethanol-induced MyD88 protein expression: inhibited the increase
LPS
  LPS plasma levels: 44 % increase over control
caspase-3
  alcohol-induced overexpression of caspase-3 mRNA: not able to prevent this effect
  ethanol-induced increase in caspase-3 activity: reversed
  ethanol-induced overexpression of caspase-3 protein: prevented
corticosterone; animals exposed to ethanol intoxication, OEA pretreatment
  ethanol-induced increase in plasma corticosterone levels: completely prevented
corticosterone; control animals
  plasma corticosterone levels: did not modify
IκBα
  increase in IκBα mRNA levels induced by ethanol: did not counteract
  increase in IκBα protein expression induced by ethanol: did not counteract
MD2
  increase in MD2 protein induced by ethanol: inhibited the increase
COX-2
  COX-2 mRNA levels: reduced COX-2 mRNA levels with ethanol, but not in the animals treated with vehicle
[2]
  alcohol-induced depressive symptoms: able to prevent alcohol-induced depressive symptoms
  immobility: normalizing
  latency: normalizing
  swimming: normalizing
TLR4
  ethanol-induced overexpression of TLR4 mRNA: able to reduce the overexpression
  ethanol-induced overexpression of TLR4 protein: able to reduce the overexpression
caspase-8
  ethanol-induced overexpression of caspase-8 mRNA: reversed this effect
